# What was measured:
# [1] = tested on: MMP2 mRNA in PC-3 cells; test: qPCR of MMP2 in PC-3; type: cell-based, human; conditions: MC3353 0.1 and 1 μM 24 h; 5-AZA, DAC 5 days, also at 0.1 to 1 μM
# From the text: (§1) RNAs were extracted by ReliaPrep™ RNA Tissue Miniprep (Promega, Madison, WI, USA) and reverse transcribed with PrimeScript RT Master Mix (Takara, Kusatsu, Shiga, Japan). cDNAs were amplified by a qPCR reaction using GoTaq qPCR Master Mix (Promega) and analyzed with the oligonucleotide pairs specific for the target genes. Relative amounts, determined with the 2^(−ΔCt) method, were normalized with respect to the human housekeeping gene L32. The primers used are as follows: L32 (forward: 5′-[…]-3′, reverse: 5′-[…]-3′), E-cadherin (forward: 5′-[…]-3′, reverse: 5′-[…]-3′), and MMP2 (forward: 5′-[…]-3′, reverse: 5′-[…]-3′).
# (§2) Prompted by these findings, we investigated the ability of MC3353 to modulate EMT pathway, using 5-AZA and DAC as reference drugs. […] The levels of mRNA transcripts of E-cadherin and matrix metalloproteinase-2 (MMP2) were determined. E-cadherin is involved in the maintenance of the epithelial identity and in the control of tumor invasiveness, whereas MMP2, through degradation of type IV collagen, the most abundant component of the basement membrane, controls an essential step for metastatic progression of most cancers as well as for induction of angiogenesis.
# [2] = tested on: double DNMT knockout (DKO) HCT116 cells; test: MTT proliferation assay DKO HCT116; type: cell-based, human; conditions: 24 and 48 h; MC3353 at 0.5 μM after 48 h; DAC, 5-AZA up to highest dose
# Experimental: DKO HCT116 (ATCC, VA, USA) cells were propagated in Dulbecco’s modified Eagle medium (DMEM) (Euroclone, Milan, Italy) with 10% fetal bovine serum (FBS; Euroclone, Milan, Italy), 2 mM L-glutamine (Euroclone, Milan, Italy) and antibiotics (100 U/mL penicillin, 100 µg/mL streptomycin) (Euroclone, Milan, Italy).
# (§3) The MTT [3-(4,5-dimethylthiazol-2-yl)-2,5-diphenyltetrazolium bromide] (Sigma-Aldrich, Milan, Italy) assay was used to determine the proliferation of HCT116 clone and DKO HCT116 cells after treatment with MC3353, 5-AZA, and DAC. 5 × 10^4 cells/well for both cell lines were plated in 24-well plate and treated, in duplicate, with compounds at several concentrations for 24 and 48 h of induction. After treatments, MTT solution was added for 3 h at 0.5 mg/mL, the purple formazan crystals were dissolved in DMSO (Sigma-Aldrich, Milan, Italy), and the absorbance was read at a wavelength of 570 nm with reader TECAN M-200.
# [3] = tested on: IOR/OS9; test: Osteosarcoma cell growth inhibition (trypan blue count); type: cell-based; conditions: Homo sapiens; 96 h of treatment; read-out: IC50 ± SD, cellular viability, IOR/OS9
# From the text: (§4) The patient-derived human OS cell lines Saos-2, U-2OS, and MG-63 were obtained from ATCC (1992). The patient-derived OS cell lines IOR/OS9, IOR/OS20, and IOR/SARG were established and previously characterized at the Laboratory of Experimental Oncology of Rizzoli Orthopedic Institute. Cell lines were profiled for DNA copy number changes and DNA methylation status at approximately 27,000 CpG sites. The cell line PDX-OS#1-C4 was obtained from OS patient-derived xenograft (PDX) after 4 passages in the animal. All cell lines were tested for mycoplasma contamination (Mycoalert Mycoplasma Detection Kit, Lonza, Verviers, Belgium) before use and authenticated by short-tandem repeat polymerase chain reaction (STR PCR) analysis (last control December 2017) using PowerPlex ESX fast System kit (Promega, Madison, WI, USA). The following loci were verified: AMEL, D3S1358, TH01, D21S11, D18S51, D10S1248, D1S1656, D2S1338, D16S539, D22S1054, VWA, D8S1179, FGA, D2S441, D12S391, D19S433, and SE33. All cell lines were immediately amplified to constitute liquid nitrogen stocks and were never passaged for more than 1 month upon thawing. Cells were maintained in Iscove’s modified Dulbecco’s medium (IMDM) supplemented with 10% heat-inactivated FBS (Lonza, Verviers, Belgium), penicillin (20 U/mL), and streptomycin (100 μg/mL) (Sigma-Aldrich, Milan, Italy) in 37 °C humidified at 5% CO2.
# (§5) To perform osteosarcoma cell growth inhibition experiments, 2 × 10^5 cells/well were plated, and MC3353 (0.1–30 μM) or DAC (0.5 μM) was added after 24 h. Cells were exposed for up to 96 h before being counted by Trypan blue vital cell count (Sigma-Aldrich, Milan, Italy). In parallel, the cells were treated with DMSO-containing medium as a control. The highest final concentration of DMSO in the medium was < 0.005%, and DMSO had no effect on cell growth.
# (§6) IC50 values of compounds against cellular viability were determined by using nonlinear regression fitting curves with GraphPad Prism 8 or CalcuSyn software The t test used for statistical analyses was performed with GraphPad Prism 8. All the tests were one-tailed, and a p value < 0.05 was considered statistically significant.
# [4] = tested on: Saos-2; test: as above; type: cell-based; conditions: Homo sapiens, 96 h of treatment, read-out: IC50 ± SD, cellular viability, Saos-2
# From the text: as §4, §5, §6
# [5] = tested on: MG63; test: as above; type: cell-based; conditions: Homo sapiens, MG-63; 96 h of treatment; read-out: IC50 ± SD, cellular viability, MG63
# From the text: as §4, §5, §6
# [6] = tested on: U-2OS; test: as above; type: cell-based; conditions: Homo sapiens, U2OS; 96 h of treatment; read-out: IC50 ± SD, cellular viability, U-2OS
# From the text: as §4, §5, §6
# [7] = tested on: PDX-OS#1-C4; test: as above; type: cell-based; conditions: Homo sapiens; 96 h of treatment; read-out: IC50 ± SD, cellular viability, PDX-OS#1-C4
# From the text: as §4, §5, §6
# [8] = tested on: IOR/OS20; test: as above; type: cell-based; conditions: Homo sapiens; 96 h of treatment; read-out: IC50 ± SD, cellular viability, IOR/OS20
# From the text: as §4, §5, §6
# [9] = tested on: IOR/SARG; test: as above; type: cell-based; conditions: Homo sapiens; 96 h of treatment; read-out: IC50 ± SD, cellular viability, IOR/SARG
# From the text: as §4, §5, §6
# [10] = tested on: MMP2 mRNA in HCT116 cells; test: qPCR of MMP2 in HCT116; type: cell-based, human; conditions: MC3353 0.1 and 1 μM 24 h; 5-AZA, DAC 5 days, also at 0.1 to 1 μM
# From the text: as §1, §2
# [11] = tested on: HCT116 cells; test: MTT proliferation assay HCT116; type: cell-based, human; conditions: 24 and 48 h; MC3353 from 0.5 μM after 48 h; DAC at 10 μM
# Experimental: as §3
# [12] = tested on: E-cadherin mRNA in PC-3 cells; test: qPCR of E-cadherin in PC-3; type: cell-based, human; conditions: MC3353 24 h; 5-AZA, DAC 5 days, effect from 1 to 5 μM
# From the text: as §1, §2
Structure (SMILES),"MMP2 mRNA expression, PC-3 [1]",effect on DKO HCT116 proliferation (MTT) [2],IC50 [3] [nM],IC50 [4] [nM],IC50 [5] [nM],IC50 [6] [nM],IC50 [7] [nM],IC50 [8] [nM],IC50 [9] [nM],"MMP2 mRNA expression, HCT116 [10]",effect on HCT116 proliferation (MTT) [11],"E-cadherin mRNA expression, PC-3 [12]"
"Nc1ncn([C@H]2C[C@H](O)[C@@H](CO)O2)c(=O)n1 [DAC, 5-aza-2′-deoxycytidine, reference compound]",increased MMP2 level,No evidence of cytotoxicity,5700 ± 3400,1000 ± 900,200 ± 200,1100 ± 900,700 ± 600,9200 ± 2200,5400 ± 1000,increased MMP2 level,modest proliferation inhibition,able to induce E-cadherin expression
"O=C(Nc1ccc(NC(=O)c2ccc(Nc3ccnc4ccccc34)cc2)cc1)OCc1ccccc1 [MC3353, Benzyl (4-(4-(quinolin-4-ylamino)benzamido)phenyl)carbamate]",strongly downregulated,markedly less efficient to impair cell proliferation,2000 ± 100,1100 ± 300,2400 ± 1700,1400 ± 100,2000 ± 100,1500 ± 100,1500 ± 100,strongly downregulated,markedly decreased HCT116 proliferation,this effect was observed only at 1 μM dose

# Reference: PMC6501426 (Clinical Epigenetics, 2019)
